Assay results reported in US11166462B2, “Fungicidal compound, fungicide composition and preparation and use thereof” (Zhejiang Udragon Bioscience Co., Ltd., priority 2016, dated 2021).
Converted amounts (≈) assume the structure as drawn.

Columns and labels:
[1] = test system: Pseudoperonospora cubensis; assay: Spore suspension spray inoculation method on pot-cultured cucumber seedlings (cucumber downy mildew); type: in vivo; settings: for EC50: Pseudoperonospora cubensis, against cucumber downy mildew, from regression of control effect at 6.25-100 mg/L; for control effect against cucumber downy mildew (in words): at 200 mg/L concentration; for Control effect (%) Cucumber downy mildew: concentration 200 mg/L; for Control effect (%) Cucumber downy mildew / Control effect (%): 5% EC diluted with water containing 1% Tween 80; for Control effect (%): cucumber downy mildew, investigated after 5 d
Protocol: Test Object: Pseudoperonospora cubensis Test design: the compound in a structure expressed by formula (I) (Y14078), the compound in a structure expressed by formula (II) (Y14079), and a reference chemical amisulbrom are prepared with DMF into 5% emulsifiable concentrate (hereafter abbreviated as EC) respectively, and then the EC is diluted with water containing 1% Tween 80 to 5 concentration gradients, i.e., 100, 50, 25, 12.5, and 6.25 mg/L. Each process is repeated for 4 times. Test method: the biological activity of the formulation is measured with a spore suspension spray inoculation method. Pot-cultured cucumber seedlings in the same growth state in the 1-leaf and 1-heart stage (with the growing point removed) are selected, sprayed with the formulation, and dried naturally. After 24 h, spores on the back side of the leaf infected by the disease is picked with a writing brush dipped with distilled water, and are prepared into spore suspension (2-3×10^5 spores/ml), the spore suspension is sprayed uniformly with an inoculating sprayer (at 0.1 MPa pressure) to the leaves of cucumbers, and then the inoculated cucumber seedlings are moved into a climatic chamber (relative humidity: 100%, temperature: 20° C., light-dark cycle time: 14 h/10 h) and cultured. After 24 h, the relative humidity is maintained at about 90% for induction; after 5 d, grading and investigation are carried out on the basis of the disease situation of the blank control group, and the control effect (%) is calculated according to the disease severity index. Investigation Method and Grading Criteria: Level 0: free from disease; Level 1: disease speckle area accounts for 5% or less of the total area of the leaf; Level 3: disease speckle area accounts for 6%-10% of the total area of the leaf; Level 5: disease speckle area accounts for 11%-25% of the total area of the leaf; Level 7: disease speckle area accounts for 26%-50% of the total area of the leaf; Level 9: disease speckle area accounts for 50% or more of the total area of the leaf. Effect Calculation: Disease index=Σ(quantity of leaves at all levels×relative level value)×100/(total quantity of leaves×9); Control effect (%)=(disease index of the control group−disease index of treated group)×100/disease index of control group Test design: the compound in a structure expressed by formula (I) (Y14078) and the compound in a structure expressed by formula (II) (Y14079) are prepared with DMF into 5% emulsifiable concentrate (hereafter abbreviated as EC) respectively, and then the EC is diluted with water containing 1% Tween 80 to prepare 200 mg/L formulation. Each process is repeated for 4 times. Test method for Pseudoperonospora cubensis: the biological activity of the formulation is measured with a spore suspension spray inoculation method. Pot-cultured cucumber seedlings in the same growth state in the 1-leaf and 1-heart stage (with the growing point removed) are selected, sprayed with the formulation, and dried naturally. After 24 h, spores on the back side of the leaf infected by the disease is picked with a writing brush dipped with distilled water, and are prepared into spore suspension (2-3×10^5 spores/[…]), the spore suspension is sprayed uniformly with an inoculating sprayer (at 0.1 MPa pressure) to the leaves of cucumbers, and then the inoculated cucumber seedlings are moved into a climatic chamber (relative humidity: 100%, temperature: 20° C., light-dark cycle time: 14 h/10 h) and cultured. After 24 h, the relative humidity is maintained at about 90% for induction; after 5 d, grading and investigation are carried out on the basis of the disease situation of the blank control group, and the control effect (%) is calculated according to the disease severity index. 2. […]

Rhizoctonia solani = assay: Fungus cake inoculation on pot-cultured seedlings (rice sheath blight); type: in vivo; settings: for control effect against rice sheath blight (in words): at 200 mg/L concentration; for Control effect (%) Rice sheath blight: concentration 200 mg/L, 5% EC diluted with water containing 1% Tween 80
Protocol: Test Object: Pseudoperonospora cubensis, Rhizoctonia Solani Test design: the compound in a structure expressed by formula (I) (Y14078) and the compound in a structure expressed by formula (II) (Y14079) are prepared with DMF into 5% emulsifiable concentrate (hereafter abbreviated as EC) respectively, and then the EC is diluted with water containing 1% Tween 80 to prepare 200 mg/L formulation. Each process is repeated for 4 times. Test method for Rhizoctonia solani: two pot-cultured seedlings in the same growth state in the true leaf stage are selected, sprayed with the formulation and then dried, and fungus cakes are attached to the leaves with the hypha side facing the leave. The seedlings are kept in a dark environment at 22-26° C. moisturizing for 24 h, and then the natural lighting is recovered, and the seedlings are cultured for about 4 days. After the disease is developed extensively in the control group, the diameter of the disease speckle at each inoculated site is measured with callipers, and the control effect is calculated. 2.

SMILES	melting point [°C]	EC50 [1] [µg/mL]	control effect against cucumber downy mildew (in words) [1]	Control effect (%) Cucumber downy mildew [1] [%]	Control effect (%) ([1]; concentration 6.25 mg/L)	Control effect (%) ([1]; concentration 12.5 mg/L)	Control effect (%) ([1]; concentration 25 mg/L)	Control effect (%) ([1]; concentration 50 mg/L)	Control effect (%) ([1]; concentration 100 mg/L)	control effect against rice sheath blight (in words) (Rhizoctonia solani)	Control effect (%) Rice sheath blight (Rhizoctonia solani) [%]
CN(C)S(=O)(=O)n1cnc(S(=O)(=O)Oc2ccc(Oc3ccccc3)cc2)n1 [Compound Y14079]	141 to 143	13.6 (≈ 32 µM)	especially remarkable	100	31.21	47.79	59.89	85.56	94.63	good control effect	67.5
CN(C)S(=O)(=O)n1cnc(S(=O)(=O)Oc2ccc3ccccc3c2Br)n1 [Compound Y14078]		12.2 (≈ 26.5 µM)	especially remarkable	100	35.56	49.97	67.27	76.24	87.58	good control effect	52.5
